# Measured values reported in patent US10968248B2, “Trinucleotide mRNA cap analogs” (c/o Arcturus Therapeutics, Inc., priority 2016, dated 2021).
# Tests used:
# [1] = Protein expression in plasma (ELISA) after i.v. delivery of m^7G(5′)p3-RNA to mice; format: in vivo
# T7 RNA polymerase = T7 RNA polymerase (Escherichia phage T7, UniProt P00573); settings: 2 hrs at 37 C, concluded from protein expression in mice
# Method: For ARCA and ARC CAP1 mRNAs, in vitro transcription was performed using the standard protocol (see Table, below). All of components were mixed, and T7 RNA polymerase (E2040 from NEB) was added in the reaction mixture. The transcription reaction was incubated for 2 hrs at 37 C. After 2 hrs of reaction time, DNASEI (NEB) and buffer were added to the transcription reaction and incubated for 15 mins at 37 C. The crude of reaction mix was purified using RNA purification kit (Macherey-Nagel).
# [2] = tested on: rabbit reticulocyte lysate system; settings: mRNA transcribed with the cap analog; cited from earlier work
# [3] = in vitro transcription initiated with the cap analog; cited from earlier work
# Sequence of T7 RNA polymerase (P00573 whole entry): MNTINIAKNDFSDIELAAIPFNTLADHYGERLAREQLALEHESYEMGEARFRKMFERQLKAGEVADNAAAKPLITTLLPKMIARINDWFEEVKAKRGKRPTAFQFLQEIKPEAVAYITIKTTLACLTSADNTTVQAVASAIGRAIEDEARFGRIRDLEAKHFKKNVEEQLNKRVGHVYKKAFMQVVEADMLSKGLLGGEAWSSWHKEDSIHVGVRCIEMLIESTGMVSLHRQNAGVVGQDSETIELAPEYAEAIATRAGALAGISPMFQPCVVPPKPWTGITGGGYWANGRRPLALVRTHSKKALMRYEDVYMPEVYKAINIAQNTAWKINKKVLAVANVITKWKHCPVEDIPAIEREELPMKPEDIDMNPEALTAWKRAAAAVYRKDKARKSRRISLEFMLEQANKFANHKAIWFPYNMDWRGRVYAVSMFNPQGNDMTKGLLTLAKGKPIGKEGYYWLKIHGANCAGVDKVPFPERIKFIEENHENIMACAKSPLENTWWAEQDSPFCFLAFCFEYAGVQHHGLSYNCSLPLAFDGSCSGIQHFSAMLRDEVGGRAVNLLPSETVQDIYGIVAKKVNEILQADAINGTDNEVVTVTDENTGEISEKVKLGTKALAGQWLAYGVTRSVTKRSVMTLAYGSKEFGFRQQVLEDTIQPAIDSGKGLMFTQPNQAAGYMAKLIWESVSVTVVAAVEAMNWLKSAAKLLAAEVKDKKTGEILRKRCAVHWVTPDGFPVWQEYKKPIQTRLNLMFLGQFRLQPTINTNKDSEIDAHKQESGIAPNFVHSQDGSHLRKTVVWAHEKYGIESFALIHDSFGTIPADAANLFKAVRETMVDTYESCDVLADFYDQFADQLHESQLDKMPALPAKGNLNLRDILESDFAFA
SMILES,efficiency of translation of capped RNA ([1]; compared with enzymatically (vaccinia) capped RNA),"amount of protein expression ([1]; m^7G(5′)p3-RNA 0.3 mg/kg i.v., male mice, plasma 6 hours post dose, ELISA, FIG. 16)",efficiency of transcription (T7 RNA polymerase),translational efficiency (rank order of cap structures) [2],caps oriented in the reverse direction / reverse-orientation transcript [3]
"CO[C@@H]1[C@H](OP(=O)(O)OC[C@H]2O[C@@H](n3cnc4c(=O)[nH]c(N)nc43)[C@H](O)[C@@H]2O)[C@@H](COP(=O)(O)OP(=O)(O)OP(=O)([O-])OC[C@H]2O[C@@H]([n+]3cn(C)c4c(=O)[nH]c(N)nc43)[C@H](O)[C@@H]2O)O[C@H]1n1cnc2c(N)ncnc21 [ARC CAP1, m^7G(5′)p3AmpG]",just as efficient translated as enzymatically capped RNA,greater than ARCA,substantially improved compared to dinucleotide ARCA,greatest,
"CO[C@H]1[C@@H](O)[C@H](n2c[n+](C)c3c(=O)[nH]c(N)nc32)O[C@@H]1COP(=O)(O)OP(=O)(O)OP(=O)(O)OC[C@H]1O[C@@H](n2cnc3c(=O)[nH]c(N)nc32)[C@H](O)[C@@H]1O [ARCA, 3′-OMe-m^7G(5′)p3G]",,,,,without reversal
Cn1c[n+]([C@@H]2O[C@H](COP(=O)(O)OP(=O)([O-])OP(=O)(O)OC[C@H]3O[C@@H](n4cnc5c(=O)[nH]c(N)nc54)[C@H](O)[C@@H]3O)[C@@H](O)[C@H]2O)c2nc(N)[nH]c(=O)c21 [m^7G(5′)p3(5′)G],,,,,one third to one half of the caps oriented in the reverse direction
